Laboratory results from EP0767786B1, “7-ETHER-TAXOL ANALOGS, ANTINEOPLASTIC USE AND PHARMACEUTICAL COMPOSITIONS CONTAINING THEM” (PHARMACIA & UPJOHN COMPANY, priority 1994, dated 1996).
Values after ≈ are worked out from the molar mass of the structure shown. Read-outs that look alike come from different tables or passages of the source.

Key:
[1] = test system: L1210 mouse leukemia carcinoma cells; test: cytotoxicity / inhibition of cell proliferation in L1210 leukemia cells in culture; type: cell-based
[2] = test system: L1210 mouse leukemia carcinoma cells; test: as above; type: cell-based; details: drug concentration required to inhibit cell proliferation to 50% of that of untreated control cells; for IC50: Mus musculus, L1210, read-out: L1210 (IC50 ug/ml)
From the text: (§1) The biological activity of the 7-deoxy-7-ether-taxol compounds (Formula I) of the invention has been confirmed using well known procedures.
The biological activity of the compounds of this invention has been further confirmed using well known procedures against L1210 leukemia and the results set forth in Table I. The results were obtained using standard well known procedure (Li, L.H.; Kuentzel, S.L.; Murch, L.L.; Pschigoga, L.M.; and W.C. Krueger, "Comparative biological and biochemical effects of nogalamycin and its analogs on L1210 leukemia," Cancer Res. 39:4816-4822 (1979)). The results are expressed as an IC50 which is the drug concentration required to inhibit cell proliferation to 50% of that of untreated control cells. Lower numbers indicated greater activity.

[3] = test system: A2780 human ovarian carcinoma; test: activity against A2780 human ovarian carcinoma cells; type: cell-based; details: for IC50: read-out: A2780 (IC50 ug/ml)
From the text: The biological activity of the compounds of this invention has been further confirmed using well known procedures against A2780 human ovarian carcinoma and the results set forth in Table II. The results were obtained using standard well known procedure (Perez, R. P.; O'Dwyer, P. J.; Handel, L. M.; Ozols, R. F.; Hamilton, T. C. Int. J. Cancer 1991, 48, 265, Alley, M.C.; Scudiero, D. A.; Monks, A.; Hursey, M. L; Czerwinski, M. J.; Fine, D. L.; et al. Cancer Res 1988, 48, 589).

tubulin = test: in vitro tubulin polymerization assay (after Gaskin et al.); type: biochemical; details: in vitro at 20°C, compared with taxol
From the text: as §1

Row | A2780 (IC50 ug/ml) [3] [µg/mL] | Compound | L1210 (IC50 ug/ml) [2] [µg/mL] | further results
1 | – | COCOC1CC2OCC2(OC(C)=O)C2C(OC(=O)c3ccccc3)C3(O)CC(OC(=O)C(O)C(NC(=O)OC(C)(C)C)c4ccccc4)C(C)=C(C(OC(C)=O)C(=O)C12C)C3(C)C (stereo not drawn) [Compound 8, 7-(O-methoxymethyl)-13-(N-Boc-2'-β-phenylisoserinyl)-baccatin III] | 0.0011 | IC90 (90% growth inhibitory concentration) [1]: 0.0011 micrograms/ml
2 | – | CC(=O)O[C@H]1C(=O)[C@@]2(C)[C@H]([C@H](OC(=O)c3ccccc3)[C@]3(O)C[C@H](OC(=O)[C@H](O)[C@@H](NC(=O)c4ccccc4)c4ccccc4)C(C)=C1C3(C)C)[C@]1(OC(C)=O)CO[C@@H]1C[C@@H]2O [taxol, Taxol] | – | IC50 [3]: 0.0018 µg/mL (≈ 2.11 nM); IC90 ([1]; read-out: IC90 (90% growth inhibitory concentration)): 17 ng/mL (≈ 19.9 nM); IC50 [2]: 0.017 µg/mL (≈ 19.9 nM)
3 | – | CC(=O)OC1C(=O)C2(C)C(OCOCc3ccccc3)CC3OCC3(OC(C)=O)C2C(OC(=O)c2ccccc2)C2(O)CC(OC(=O)C(O)C(NC(=O)OC(C)(C)C)c3ccccc3)C(C)=C1C2(C)C (stereo not drawn) [Compound 10, 7-(O-benzyloxymethyl)-13-(N-Boc-β-phenylisoserinyl)-baccatin III] | 0.001 | –
4 | 0.00025 | CSCOC1CC2OCC2(OC(C)=O)C2C(OC(=O)c3ccccc3)C3(O)CC(OC(=O)C(O)C(NC(=O)NC(C)(C)C)c4ccccc4)C(C)=C(C(OC(C)=O)C(=O)C12C)C3(C)C (centres unmarked) [Compound 55, 13-(N-(t-butylaminocarbonyl)-b-phenylisoserinyl)-baccatin III 7-O-methylthiomethyl ether] | – | –
5 | 0.0007 | CCOCOC1CC2OCC2(OC(C)=O)C2C(OC(=O)c3ccccc3)C3(O)CC(OC(=O)C(O)C(NC(=O)OC(C)(C)C)c4ccccc4)C(C)=C(C(OC(C)=O)C(=O)C12C)C3(C)C (stereo not drawn) [Compound 4, 7-(O-ethoxymethyl)-13-(N-Boc-β-phenylisoserinyl)-baccatin III] | – | induce tubulin polymerization in vitro (tubulin): able to induce tubulin polymerization in vitro at 20 °C in a manner very similar to taxol
6 | 0.00004 | COCOC1CC2OCC2(OC(C)=O)C2C(OC(=O)c3ccccc3)C3(O)CC(OC(=O)C(O)C(NC(=O)NC(C)(C)C)c4ccccc4)C(C)=C(C(OC(C)=O)C(=O)C12C)C3(C)C (stereo not drawn) [Compound 27, 7-(O-methoxymethyl)-13-(N-(t-butylaminocarbonyl)-β-phenylisoserinyl)-baccatin III] | – | induce tubulin polymerization in vitro (tubulin): able to induce tubulin polymerization in vitro at 20 °C in a manner very similar to taxol
7 | 0.00034 | COC1CC2OCC2(OC(C)=O)C2C(OC(=O)c3ccccc3)C3(O)CC(OC(=O)C(O)C(NC(=O)NC(C)(C)C)c4ccccc4)C(C)=C(C(OC(C)=O)C(=O)C12C)C3(C)C (centres unmarked) [Compound 56, 13-(N-(t-butylaminocarbonyl)-b-phenylisoserinyl)-baccatin III 7-O-methyl ether] | – | –
8 | – | COCCOCOC1CC2OCC2(OC(C)=O)C2C(OC(=O)c3ccccc3)C3(O)CC(OC(=O)C(O)C(NC(=O)OC(C)(C)C)c4ccccc4)C(C)=C(C(OC(C)=O)C(=O)C12C)C3(C)C (stereo not drawn) [Compound 6, 7-(O-methoxyethoxymethyl)-13-(N-Boc-β-phenylisoserinyl)-baccatin III] | 0.0023 | –
9 | – | 7-[O-(2,2,2-trichloroethoxy)methyl]-13-(N-Boc-β-phenyl isoserinyl)-baccatin III [Compound 21] | 0.0024 | –
10 | 0.00037 | CSCOC1CC2OCC2(OC(C)=O)C2C(OC(=O)c3ccccc3)C3(O)CC(OC(=O)C(O)C(NC(=O)OC(C)(C)C)c4ccccc4)C(C)=C(C(OC(C)=O)C(=O)C12C)C3(C)C (stereo not drawn) [Compound 44, 7-(O-methylthiomethyl)-13-(N-Boc-β-phenylisoserinyl)-baccatin III] | – | –
11 | – | CC(=O)O[C@@]12CO[C@@H]1C[C@H](O)[C@@]1(C)C(=O)[C@H](O)C3=C(C)[C@@H](OC(=O)[C@H](O)[C@@H](NC(=O)OC(C)(C)C)c4ccccc4)C[C@@](O)([C@@H](OC(=O)c4ccccc4)[C@H]21)C3(C)C [taxotere, reference compound] | – | IC50 [3]: 0.0007 µg/mL (≈ 0.866 nM); IC50 [2]: 0.004 µg/mL (≈ 4.95 nM)
12 | – | 7-[O-(2,2,2-trichloroethoxy)methoxymethyl]-13-(N-Boc-β-phenyl isoserinyl)-baccatin III [Compound 22] | 0.0047 | –
13 | 0.00007 | CCOCOC1CC2OCC2(OC(C)=O)C2C(OC(=O)c3ccccc3)C3(O)CC(OC(=O)C(O)C(NC(=O)NC(C)(C)C)c4ccccc4)C(C)=C(C(OC(C)=O)C(=O)C12C)C3(C)C (stereo not drawn) [Compound 14, 7-(O-ethoxymethyl)-13-(N-(t-butylaminocarbonyl)-β-phenylisoserinyl)-baccatin III] | 0.0014 | –

Row | Compound | A2780 (IC50 ug/ml) [3] [µg/mL] | L1210 (IC50 ug/ml) [2] [µg/mL] | further results
14 | 13-(N-Boc-2'-TES-b-phenyl isoserinyl)-baccatin III 7-O-methyl ether [Compound 58] | 0.00038 | – | –
15 | COC1CC2OCC2(OC(C)=O)C2C(OC(=O)c3ccccc3)C3(O)CC(OC(=O)C(O)C(NC(=O)c4ccccc4)c4ccccc4)C(C)=C(C(OC(C)=O)C(=O)C12C)C3(C)C (centres unmarked) [Compound 47, 7-O-methyl Taxol] | 0.0007 | – | A2780 (IC50 ug/ml) ([3]; retest): 0.00044 µg/mL
16 | CC(=O)OC1C(=O)C2(C)C(OCSc3ccccc3)CC3OCC3(OC(C)=O)C2C(OC(=O)c2ccccc2)C2(O)CC(OC(=O)C(O)C(NC(=O)c3ccccc3)c3ccccc3)C(C)=C1C2(C)C (centres unmarked) [Compound 46, 7-(O-phenylthiomethyl) taxol] | 0.0016 | – | –
17 | CCSC(C)OC1CC2OCC2(OC(C)=O)C2C(OC(=O)c3ccccc3)C3(O)CC(OC(=O)C(O)C(NC(=O)c4ccccc4)c4ccccc4)C(C)=C(C(OC(C)=O)C(=O)C12C)C3(C)C (centres unmarked) [Compound 49, 7-[O-ethyl(1-thioethyl)] Taxol] | 0.0057 | – | –
18 | CSCOC1CC2OCC2(OC(C)=O)C2C(OC(=O)c3ccccc3)C3(O)CC(OC(=O)C(O)C(NC(=O)c4ccccc4)c4ccccc4)C(C)=C(C(OC(C)=O)C(=O)C12C)C3(C)C (centres unmarked) [Compound 42, 7-(O-methylthiomethyl) taxol] | 0.00047 | – | –
